From patent US6183736A, “Small peptides with antipathogenic activity, treated plants and methods for treating same” (USDA/ARS Southern Regional Research Center, priority 1999, dated 2001)
Where two headings read alike, the source gives them in different places. Residues, ends and D or L forms follow the SMILES beside them. No end group written: not given here.

Assays:
Fusarium oxysporum [1] = details: cited from earlier work
Kluyveromyces bulgaris [2] = details: cited from earlier work
Aspergillus niger [3] = details: cited from earlier work
Absydia corymbifera = details: cited from earlier work
Candida albicans [4] = details: cited from earlier work
Saccharomyces cerevisae = details: cited from earlier work
[5] = test system: various yeasts, fungi and phytopathogenic fungi; details: cited from earlier work
bacteria = details: cited from earlier work
Ceratocystis fagacearum = details: cited from earlier work
Cryphonectria parasitica = details: cited from earlier work
Verticillium dahliae = details: cited from earlier work
Ophiostoma ulmi = details: cited from earlier work
[6] = test system: Micrococcus luteus protoplast; details: cited from earlier work
Micrococcus luteus [7] = details: cited from earlier work
Pleospora herbarum = details: cited from earlier work
Sclerotina fructigena = details: cited from earlier work
Rhodotorula pillimanae = details: cited from earlier work
Streptomyces albus G = details: cited from earlier work
Azotobacter vinelandii = details: cited from earlier work
Sarcinia lutea = details: cited from earlier work
Candida albicans [8] = details: cited from earlier work; remark: listed apart in the source
Neurospora crassa = details: cited from earlier work
Staphylococcus aureus = details: cited from earlier work
Saccharomyces cerevisiae = details: cited from earlier work
Sclerotina sclerotiorum = details: cited from earlier work
Aspergillus niger [9] = details: cited from earlier work; remark: listed apart in the source
Escherichia coli K12 = details: cited from earlier work
[10] = test system: Trichophyton mentagrophytes; details: cited from earlier work
Brucella brochiseptica = details: cited from earlier work
Mycosphaerella pinodes = details: cited from earlier work
Micrococcus luteus [11] = details: cited from earlier work; remark: listed apart in the source
Candida tropicalis = details: cited from earlier work
Stemphylium radicinum = details: cited from earlier work
Botrytis cinerea = details: cited from earlier work
Fusarium oxysporum [12] = details: cited from earlier work; remark: listed apart in the source
Bacillus cereus = details: cited from earlier work
Penicillium chysogenum = details: cited from earlier work
Kluyveromyces bulgaris [13] = details: cited from earlier work; remark: listed apart in the source
[14] = test system: Cladosporium cladosporioides; details: cited from earlier work
Aspergillus flavus [15] = experiment: Disc plate diffusion assay; type: cell-based; details: purified peptide on filter paper disc
Experimental: Mycelium plugs from actively growing fungal cultures were placed in the center of the petri plate. After incubation at 27° C. to allow vegetative growth, samples were applied on sterile filter paper discs laid on the agar surface. Precipitation with ammonium sulfate. The 7th day culture filtrate was sequentially precipitated with 20, 40, 60 and 80% ammonium sulfate. […] After complete purification of the antifungal peptides as described in example 8, removing salt by purification on a […] cartridge (waters) and freeze drying, both peptides were quantified by weight. […] The antifungal assays are described in example 2.

Aspergillus flavus [16] = type: cell-based
Experimental: Description of the method for the antifungal assays. […] Each well contained 100 μl Potato Dextrose Agar (PDA, Difco Laboratories) and 100 μl of sample and was inoculated with 500 spores of Aspergillus flavus. Fungal growth was monitored by reading optical density (O.D.) at 560 nm (Dynatech microplate reader). […] After complete purification of the antifungal peptides as described in example 8, removing salt by purification on a […] cartridge (waters) and freeze drying, both peptides were quantified by weight. […] The antifungal assays are described in example 2.

Bacillomycin D (NYNPEST; also: cyclic lipopeptide with β-amino fatty acid, ring closure not described) [iturin lipopeptide: Asn Tyr Asn Pro Glu Ser Thr with β amino acid n-C14, i-C15, a-C15]
Antifungal activity (Fusarium oxysporum [1]): antifungal | Antifungal activity (Kluyveromyces bulgaris [2]): antifungal | Antifungal activity (Aspergillus niger [3]): antifungal | Antifungal activity (Absydia corymbifera): antifungal | Antifungal activity (Candida albicans [4]): antifungal | Antifungal activity (Saccharomyces cerevisae): antifungal

Bacillomycin F (NYNQPNT; also: cyclic lipopeptide with β-amino fatty acid, ring closure not described) [iturin lipopeptide: Asn Tyr Asn Gln Pro Asn Thr with β amino acid i-C16, i-C17, a-C17]
Antifungal activity [5]: strong antifungal activity | Antibacterial activity (bacteria): weak antibacterial activity

Bacillomycin Lc
Antifungal activity (Ceratocystis fagacearum): antifungal activity | Antifungal activity (Cryphonectria parasitica): antifungal activity | Antifungal activity (Verticillium dahliae): antifungal activity | Antifungal activity (Ophiostoma ulmi): antifungal activity

Bacillomycin L (DYNSQST; also: cyclic lipopeptide with β-amino fatty acid, ring closure not described) [iturin lipopeptide: Asp Tyr Asn Ser Gln Ser Thr with β amino acid n-C14, i-C15, a-C15]
Lysis of Micrococcus luteus protoplast [6]: no effect | Inhibition of growth of Micrococcus luteus (Micrococcus luteus [7]): inhibited the growth

Bacillomycin Fa
MIC (Pleospora herbarum): 10 µg/mL | MIC (Sclerotina fructigena): 40 µg/mL | MIC (Rhodotorula pillimanae): 80 µg/mL | MIC (Streptomyces albus G): > 400 µg/mL | MIC (Azotobacter vinelandii): > 400 µg/mL | MIC (Sarcinia lutea): > 400 µg/mL | MIC (Candida albicans [8]): 40 µg/mL | MIC (Neurospora crassa): 80 µg/mL | MIC (Staphylococcus aureus): > 400 µg/mL | MIC (Saccharomyces cerevisiae): 10 µg/mL | MIC (Sclerotina sclerotiorum): 50 µg/mL | MIC (Aspergillus niger [9]): 40 µg/mL | MIC (Escherichia coli K12): > 400 µg/mL | MIC [10]: 20 µg/mL | MIC (Brucella brochiseptica): > 400 µg/mL | MIC (Mycosphaerella pinodes): 10 µg/mL | MIC (Micrococcus luteus [11]): 200 µg/mL | MIC (Candida tropicalis): 40 µg/mL | MIC (Stemphylium radicinum): 320 µg/mL | MIC (Botrytis cinerea): 20 µg/mL | MIC (Fusarium oxysporum [12]): > 320 µg/mL | MIC (Bacillus cereus): > 400 µg/mL | MIC (Penicillium chysogenum): 20 µg/mL

Bacillomycin Fc
MIC (Kluyveromyces bulgaris [13]): 40 µg/mL | MIC (Candida albicans [8]): > 200 µg/mL | MIC (Saccharomyces cerevisiae): 30 µg/mL | MIC (Aspergillus niger [9]): 30 µg/mL | MIC [14]: 40 µg/mL | MIC (Mycosphaerella pinodes): 30 µg/mL | MIC (Candida tropicalis): > 200 µg/mL | MIC (Fusarium oxysporum [12]): > 200 µg/mL

CCCCCCCCCCCCC[C@@H]1CC(=O)N[C@@H](CC(N)=O)C(=O)N[C@H](Cc2ccc(O)cc2)C(=O)N[C@H](CC(N)=O)C(=O)N2CCC[C@H]2C(=O)N[C@@H](CCC(=O)O)C(=O)N[C@H](CO)C(=O)N[C@@H]([C@@H](C)O)C(=O)N1 [a2] (HELM PEPTIDE1{E.[dS].T.[CCCCCCCCCCCCC[C@H](CC(=O)[*:2])N[*:1]].N.[dY].[dN].P}$PEPTIDE1,PEPTIDE1,1:R1-8:R2$$$V2.0)
Disc plate diffusion assay Minimal amount to inhibit hyphal growth (Aspergillus flavus [15]): 3 µg | Microtiter plate Minimal inhibitory concentration (MIC) (Aspergillus flavus [16]): 130 µM

Iturin A (NYNQPNS; also: cyclic with β-amino fatty acid, ring closure not described) [cyclic lipopeptide of Bacillus subtilis: Asn Tyr Asn Gln Pro Asn Ser with β amino acid n-C14, i-C15, a-C15]
Lysis of Micrococcus luteus protoplast [6]: able to lyse | Inhibition of growth of Micrococcus luteus (Micrococcus luteus [7]): inhibited the growth | Disc plate diffusion assay Minimal amount to inhibit hyphal growth (Aspergillus flavus [15]): > 50 µg | Microtiter plate Minimal inhibitory concentration (MIC) (Aspergillus flavus [16]; Aspergillus flavus, 500 spores per well, O.D. 560 nm): 250 µM

Mycosubtilin (NYNQPSN; also: cyclic lipopeptide with β-amino fatty acid, ring closure not described) [Mycosubtlin, iturin lipopeptide: Asn Tyr Asn Gln Pro Ser Asn with β amino acid i-C16, a-C17]
Lysis of Micrococcus luteus protoplast [6]: able to lyse | Inhibition of growth of Micrococcus luteus (Micrococcus luteus [7]): inhibited the growth

Bacillomycin Fb
MIC (Kluyveromyces bulgaris [13]): 75 µg/mL | MIC (Candida albicans [8]): > 200 µg/mL | MIC (Saccharomyces cerevisiae): 25 µg/mL | MIC (Aspergillus niger [9]): 25 µg/mL | MIC [14]: 25 µg/mL | MIC (Mycosphaerella pinodes): 100 µg/mL | MIC (Candida tropicalis): > 200 µg/mL | MIC (Fusarium oxysporum [12]): > 200 µg/mL

a1: cyclic lipopeptide from B. subtilis AU195, bacillomycin D family, [M+H] 1045.5, linearised sequence STNYNPE, β-amino fatty acid believed of 15 carbons (not fully specified; also: cyclic lipopeptide, C15 β-amino fatty acid (hydroxy fatty acid at Thr suggested), sequence given after Glu-C linearisation)
Disc plate diffusion assay Minimal amount to inhibit hyphal growth (Aspergillus flavus [15]): 15 µg
